Tests used:
[1] = test system: Rattus norvegicus; test: Antisecretory activity at 32 mg/kg dose administered intraduodenally in the pylorus-ligated rat; type: functional; conditions: route intraduodenal
[2] = test system: Rattus norvegicus; test: Antisecretory activity (total acid output) at 2 mg/kg dose administered intraduodenally in the pylorus-ligated rat; type: functional; conditions: route intraduodenal
[3] = test system: Rattus norvegicus; test: Antisecretory activity (total acid output) at 4 mg/kg dose administered intraduodenally in the pylorus-ligated rat; type: functional; conditions: route intraduodenal
[4] = test system: Canis familiaris; test: Antisecretory activity (total acid output) at 2 mg/kg dose administered (po) in Gastric pouch dog was determined by dose related inhibition of food stimulated gastric acid secretion; type: functional, Canis lupus familiaris, Stomach; set-up: scale not given: the % may be the effect or the level left
[5] = test system: Rattus norvegicus; test: Antisecretory activity (total acid output) at 8 mg/kg dose administered intraduodenally in the pylorus-ligated rat; type: functional; conditions: route intraduodenal
[6] = test system: Rattus norvegicus; test: Antisecretory activity (total acid output) at 16 mg/kg dose administered intraduodenally in the pylorus-ligated rat; type: functional; conditions: route intraduodenal
[7] = test system: Canis familiaris; test: Antisecretory activity (total acid output) at 4 mg/kg dose administered (po) in Gastric pouch dog was determined by dose related inhibition of food stimulated gastric acid secretion; type: functional, Canis lupus familiaris, Stomach; set-up: scale not given: the % may be the effect or the level left
[8] = test system: Canis familiaris; test: Antisecretory activity (total acid output) at 8 mg/kg dose administered (po) in Gastric pouch dog was determined by dose related inhibition of food stimulated gastric acid secretion; type: functional, Canis lupus familiaris, Stomach; set-up: scale not given: the % may be the effect or the level left
[9] = test system: Rattus norvegicus; test: Antisecretory activity (total acid output) at 0.5 mg/kg dose administered intraduodenally in the pylorus-ligated rat; type: functional; conditions: route intraduodenal
[10] = test system: Canis familiaris; test: Antisecretory activity (total acid output) at 16 mg/kg dose administered (po) in Gastric pouch dog was determined by dose related inhibition of food stimulated gastric acid secretion; type: functional, Canis lupus familiaris, Stomach; set-up: scale not given: the % may be the effect or the level left

Row | SMILES | Control [1] | further results
1 | CCn1c(=O)c(C(=O)O)c(N)c2cccnc21 | 37% | –
2 | CCN(CC)CCOC(=O)c1c(N)c2cccnc2n(CC)c1=O | 40% | –
3 | CCOC(=O)c1c(NC(C)=O)c2cccnc2n(CC)c1=O | 67% | –
4 | CCn1c(=O)c(C(=O)NN)c(N)c2cccnc21 | 29% | –
5 | CCn1c(=O)c(C#N)c(N2CCCC2)c2ccc(C)nc21 | 67% | –
6 | CCCCOC(=O)c1c(N)c2cccnc2n(CC)c1=O | 26% | –
7 | CCOC(=O)C(=O)Nc1c(C(=O)OCC)c(=O)n(CC)c2ncccc12 | 28% | –
8 | CCOC(=O)c1c(N(C(C)=O)C(C)=O)c2cccnc2n(CC)c1=O | 59% | –
9 | CN/C(=N\CCSCc1nc[nH]c1C)NC#N [CIMETIDINE] | – | Inhibition of gastric acid secretion (% relative to control) [1]: 80%
10 | CCn1c(=O)c(C#N)c(N)c2ccc(C)nc21 | 62% | –
11 | C=CCn1c(=O)c(C(=O)O)c(NC(=O)CCl)c2cccnc21 | 63% | –
12 | CCOC(=O)c1c(N(C)CCO)c2ccc(C)nc2n(CC)c1=O | 59% | –
13 | CCOC(=O)c1c(N(CC)CC)c2ccc(C)nc2n(CC)c1=O | 55% | –
14 | CCOC(=O)c1c(O)c2cccnc2n(CC)c1=O | 63% | –
15 | CCOC(=O)c1c(NCC(O)c2ccccc2)c2ccc(C)nc2n(CC)c1=O (stereo unspecified) | 111% | –
16 | CCOC(=O)c1c(N2CCOCC2)c2ccc(C)nc2n(CC)c1=O | 22% | –
17 | C=CCn1c(=O)c(C(=O)OCC)c(N)c2cccnc21 | 22% | –
18 | CCOC(=O)c1c(O)nc2ncccc2c1N | 44% | –
19 | CCn1c(=O)c(C(N)=O)c(N)c2ccc(C)nc21 | 55% | –

Row | SMILES | Control [1] | further results
20 | CCC(C)OC(=O)c1c(N)c2cccnc2n(CC)c1=O (stereo unspecified) | 42% | –
21 | CCOC(=O)c1c(N2CCCC2)c2cccnc2n(C)c1=O | 51% | –
22 | CCOC(=O)c1c(O)c2ccc(C)nc2n(C)c1=O | 51% | –
23 | CCN(CC)CCNC(=O)c1c(N)c2cccnc2n(CC)c1=O | 56% | –
24 | CCOC(=O)c1c(N2CCN(C)CC2)c2ccc(C)nc2n(C)c1=O | 9% | –
25 | CCOC(=O)c1c(N)c2c(C)cc(C)nc2n(CC)c1=O | 50% | –
26 | CCOC(=O)c1c(O)c2ccc(C)nc2n(CC)c1=O | 53% | –
27 | CCNc1cc(C)c2c(N)c(C(=O)OCC)c(=O)n(CC)c2n1 | 58% | –
28 | CCn1c(=O)c(C(N)=O)c(N)c2cccnc21 | 19% | –
29 | CCOC(=O)c1c(Cl)c2ccc(C)nc2n(CC)c1=O | 66% | –
30 | CCn1c(=O)c(C(=O)O)c(N2CCN(C)CC2)c2ccc(C)nc21 | 89% | –
31 | CCOC(=O)c1c(NCCCN(C)C)c2ccc(C)nc2n(CC)c1=O | 77% | –
32 | CCOC(=O)c1c(N2CCN(C)CC2)c2ccc(C)nc2n(CC)c1=O | 7.5% | Control [2]: 85%; Control [3]: 66%; Control [4]: 95%; Control [5]: 45%; Control [6]: 28%; Control [7]: 40%
33 | CCCn1c(=O)c(C(=O)OCC)c(N)c2cccnc21 | 30% | –
34 | CCn1c(=O)c(C(=O)O)c(N)c2cc(NC(C)=O)cnc21 | 82% | –
35 | CCOC(=O)c1c(N)c2cccnc2n(C2CCCCC2)c1=O | 48% | –
36 | CCOC(=O)c1c(O)nc2nc(C)ccc2c1N1CCN(C)CC1 | 34% | –
37 | CCOC(=O)c1c(N)c2cccnc2n(CC(C)C)c1=O | 28% | –
38 | CCOC(=O)c1c(N)c2ccc(C)nc2n(CCO)c1=O | 74% | –

Row | SMILES | Control [1] | further results
39 | Nc1c(C(=O)O)c(O)nc2ncccc12 | 72% | –
40 | CCOC(=O)c1c(N)c2cccnc2n(CC)c1=O | 18% | Control [8]: 97%; Control [2]: 58%; Control [3]: 55%; Control [5]: 35%; Control [6]: 17%; Control [7]: 92%; Control [9]: 100%; Control [10]: 62%
41 | CCNc1c(C(=O)OCC)c(=O)n(CC)c2nc(C)ccc12 | 36% | –
42 | CCOC(=O)c1c(OCC)c2ccc(C)nc2n(CC)c1=O | 46% | –
43 | CCOC(=O)c1c(O)nc2nc(C)cc(C)c2c1N | 89% | –
44 | CCOC(=O)c1c(NC(=O)C(F)(F)F)c2cccnc2n(CC)c1=O | 22% | –
45 | C=CCn1c(=O)c(C(=O)OCC)c(O)c2ccc(C)nc21 | 73% | –
46 | CCOC(=O)c1c(N2CCCC2)c2ccc(C)nc2n(C)c1=O | 32% | –
47 | CCOC(=O)c1c(N2CCNCC2)c2ccc(C)nc2n(CC)c1=O | 10% | –
48 | CCOC(=O)c1c(N2CCCC2)c2ccc(C)nc2n(CC)c1=O | 29% | –
49 | C=CCn1c(=O)c(C(=O)OCC)c(N2CCCC2)c2ccc(C)nc21 | 59% | –
50 | CCOC(=O)c1c(N2CCN(C)CC2)c2cccnc2n(CC)c1=O | 17% | –
51 | CCOC(=O)c1c(N2CCN(C)CC2)c2cccnc2n(C)c1=O | 25% | –
52 | CCOC(=O)c1c(N2CCN(C(=O)OCC)CC2)c2ccc(C)nc2n(CC)c1=O | 70% | –
53 | CCOC(=O)c1c(N2CC[N+](C)(C)CC2)c2ccc(C)nc2n(CC)c1=O.[Cl-] | 123% | –
54 | CCNC(=O)c1c(N)c2cccnc2n(CC)c1=O | 28% | –
55 | CCOC(=O)c1c(N)c2ccc(C)nc2n(CC)c1=O | 33% | –
56 | CCOC(=O)c1c(N)c2cccnc2n(C)c1=O | 21% | –
57 | CCOC(=O)c1c(N(C(C)=O)C(C)=O)c2c(C)cc(C)nc2n(CC)c1=O | 76% | –

— ChEMBL document CHEMBL1123567, “2-Oxo-1,8-naphthyridine-3-carboxylic acid derivatives with potent gastric antisecretory properties” (1987)
